The results in this text go back to patent publication US11319299B2, “Substituted carboxamides as inhibitors of WDR5 protein-protein binding” (PROPELLON THERAPEUTICS INC., priority 2016, dated 2022).

The target in this assay is WDR5 (Homo sapiens (Human), UniProt P61964). In words: Surface Plasmon Resonance (SPR) assay, KD and residence time. It counts as binding. Particulars: surface plasmon resonance (SPR); read-out: WDR5 binding affinity (KD). In general terms: Surface plasmon resonance follows binding to a sensor surface in real time, without labels.

pKd: −log10 of the molar value.

Usually pKd stands for the negative decadic logarithm of the Kd, by convention in mol/L. With `C[C@@H]1CN(c2cc(F)c(-c3ccnc(S(C)(=O)=O)n3)cc2NC(=O)c2c[nH]c(=O)cc2C(F)(F)F)C[C@H](C)N1C` [Example 399, N-[4-fluoro-5-(2-methylsulfonylpyrimidin-4-yl)-2-[(3R,5S)-3,4,5-trimethylpiperazin-1-yl]phenyl]-6-oxo-4-(trifluoromethyl)-1H-pyridine-3-carboxamide], the pKd is 8.34.
The result for `C[C@@H]1CN(c2cc(F)c(C3=CCN(c4ncc(C#N)cn4)CC3)cc2NC(=O)c2c[nH]c(=O)cc2C(F)(F)F)C[C@H](C)N1C` [Example 404, N-[5-[1-(5-cyanopyrimidin-2-yl)-3,6-dihydro-2H-pyridin-4-yl]-4-fluoro-2-[(3R,5S)-3,4,5-trimethylpiperazin-1-yl]phenyl]-6-oxo-4-(trifluoromethyl)-1H-pyridine-3-carboxamide] reads 9.00.
Under `C[C@@H]1CN(c2cc(F)c(C3=CCN(c4ncc(CN(C)C)cn4)CC3)cc2NC(=O)c2c[nH]c(=O)cc2C(F)(F)F)C[C@H](C)N1C` [Example 405, N-[5-[1-[5-[(dimethylamino)methyl]pyrimidin-2-yl]-3,6-dihydro-2H-pyridin-4-yl]-4-fluoro-2-[(3R,5S)-3,4,5-trimethylpiperazin-1-yl]phenyl]-6-oxo-4-(trifluoromethyl)-1H-pyridine-3-carboxamide] stands 10.02; under `C[C@@H]1CN(c2cc(F)c(C3=CCN(c4ncc(CN5CCOCC5)cn4)CC3)cc2NC(=O)c2c[nH]c(=O)cc2C(F)(F)F)C[C@H](C)N1C` [Example 406, N-[4-fluoro-5-[1-[5-(morpholin-4-ylmethyl)pyrimidin-2-yl]-3,6-dihydro-2H-pyridin-4-yl]-2-[(3R,5S)-3,4,5-trimethylpiperazin-1-yl]phenyl]-6-oxo-4-(trifluoromethyl)-1H-pyridine-3-carboxamide], 9.34.
Turning to `C[C@@H]1CN(c2cc(F)c(C3=CCN(c4ncc(CN5CCN(C)CC5)cn4)CC3)cc2NC(=O)c2c[nH]c(=O)cc2C(F)(F)F)C[C@H](C)N1C` [Example 407, N-[4-fluoro-5-[1-[5-[(4-methylpiperazin-1-yl)methyl]pyrimidin-2-yl]-3,6-dihydro-2H-pyridin-4-yl]-2-[(3R,5S)-3,4,5-trimethylpiperazin-1-yl]phenyl]-6-oxo-4-(trifluoromethyl)-1H-pyridine-3-carboxamide], the pKd was 9.64.
The result for `CC(C)COC(=O)N1CCC=C(c2cc(NC(=O)c3c[nH]c(=O)cc3C(F)(F)F)c(N3C[C@@H](C)N(C)[C@@H](C)C3)cc2F)C1` [Example 408, 2-methylpropyl 5-[2-fluoro-5-[[6-oxo-4-(trifluoromethyl)-1H-pyridine-3-carbonyl]amino]-4-[(3R,5S)-3,4,5-trimethylpiperazin-1-yl]phenyl]-3,6-dihydro-2H-pyridine-1-carboxylate] reads 8.56; that for `C[C@@H]1CN(c2cc(F)c(C3=CCCN(c4ncc(C=O)cn4)C3)cc2NC(=O)c2c[nH]c(=O)cc2C(F)(F)F)C[C@H](C)N1C` [Example 409, N-[4-fluoro-5-[1-(5-formylpyrimidin-2-yl)-3,6-dihydro-2H-pyridin-5-yl]-2-[(3R,5S)-3,4,5-trimethylpiperazin-1-yl]phenyl]-6-oxo-4-(trifluoromethyl)-1H-pyridine-3-carboxamide], 9.64; that for `C[C@@H]1CN(c2cc(F)c(C3=CCCN(c4ncc(CN5CCN(C)CC5)cn4)C3)cc2NC(=O)c2c[nH]c(=O)cc2C(F)(F)F)C[C@H](C)N1C` [Example 416, N-[4-fluoro-5-[1-[5-[(4-methylpiperazin-1-yl)methyl]pyrimidin-2-yl]-3,6-dihydro-2H-pyridin-5-yl]-2-[(3R,5S)-3,4,5-trimethylpiperazin-1-yl]phenyl]-6-oxo-4-(trifluoromethyl)-1H-pyridine-3-carboxamide], 9.97.
